Test results reported in patent US20250262201A1, “COMPOUNDS AND METHODS USEFUL FOR STABILIZING PHENYLALANINE HYDROXYLASE MUTATIONS” (Agios Pharmaceuticals, Inc., priority 2022, published 2025).

These compounds were tested against T1, human PAH with the R408W mutation (Homo sapiens, UniProt P00439, R408W) (assay: Cell Based Phenylalanine Flux Assay). Settings: A375 R408W cells, 24 hrs with compound, then 20 μM sepiapterin and 800 μM 13C9,15N-Phenylalanine for 4 hours; 13C-Tyrosine by LC-MS; average where tested multiple times; read-out: AC50.
T1 construct: expressed in transfected cells
T1 sequence (P00439 1-452 R408W): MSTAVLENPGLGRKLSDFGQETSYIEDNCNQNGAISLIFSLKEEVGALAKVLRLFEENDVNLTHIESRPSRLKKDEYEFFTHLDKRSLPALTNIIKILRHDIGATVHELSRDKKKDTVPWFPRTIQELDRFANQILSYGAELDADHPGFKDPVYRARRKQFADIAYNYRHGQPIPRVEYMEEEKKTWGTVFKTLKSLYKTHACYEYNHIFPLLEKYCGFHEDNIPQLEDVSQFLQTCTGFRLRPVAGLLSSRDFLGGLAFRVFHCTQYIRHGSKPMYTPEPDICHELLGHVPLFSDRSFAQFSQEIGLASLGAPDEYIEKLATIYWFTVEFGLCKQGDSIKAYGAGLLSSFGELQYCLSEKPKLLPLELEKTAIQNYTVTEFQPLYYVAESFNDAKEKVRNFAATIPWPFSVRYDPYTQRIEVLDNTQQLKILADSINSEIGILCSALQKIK

Compound	AC50 [µM]
CC(C)(O)c1cc(C(=O)N2CCc3[nH]cnc3[C@H]2c2cc3ccccc3cn2)no1	1 to 5
CC(C)(O)c1cc(C(=O)N2CCc3[nH]cnc3[C@H]2c2cc3ccccc3cn2)on1	1 to 5
O=C(c1nnc(CCN2CC(F)C2)o1)N1CCc2[nH]cnc2[C@H]1c1cc2ccccc2cn1	1 to 5
CN1CCN(c2nnc(C(=O)N3CCc4[nH]cnc4[C@H]3c3cc4ccccc4cn3)o2)CC1	1 to 5
O=C(CCc1cnco1)N1CCc2[nH]cnc2C1c1cn2ccccc2n1 (stereo not drawn)	1 to 5
O=C(Cn1cncn1)N1CCc2[nH]cnc2C1c1cn2ccccc2n1 (stereo not drawn)	> 5
O=C(CCc1cncs1)N1CCc2[nH]cnc2C1c1cn2ccccc2n1 (stereo not drawn)	> 5
O=C(c1cnc(C2(O)CCC2)s1)N1CCc2[nH]cnc2C1c1cn2ccccc2n1 (stereo not drawn)	1 to 5
CN1CCN(c2nnc(C(=O)N3CCc4[nH]cnc4C3c3cn4ccccc4n3)o2)CC1 (stereo not drawn)	> 5
CC(C)(F)c1ncc(C(=O)N2CCc3[nH]cnc3C2c2cn3ccccc3n2)o1 (stereo not drawn)	1 to 5
Cn1cc(-c2nnc(C(=O)N3CCc4[nH]cnc4C3c3cn4ccccc4n3)o2)cn1 (stereo not drawn)	1 to 5
CC(C)(O)c1nc(C2CC2)c(C(=O)N2CCc3[nH]cnc3C2c2cn3ccccc3n2)o1 (stereo not drawn)	1 to 5
O=C(c1oc(-c2ccccn2)nc1C1CC1)N1CCCc2[nH]cnc2C1c1cn2ccccc2n1 (stereo not drawn)	> 5
O=C(c1oc(-c2ccccn2)nc1C1CC1)N1CCc2nc[nH]c2C1c1cn2ccccc2n1 (stereo not drawn)	1 to 5
O=C(c1ocnc1-c1ccccn1)N1CCc2[nH]cnc2C1c1cn2ccccc2n1 (stereo not drawn)	1 to 5
O=C(c1nnc(-c2ccccn2)o1)N1CCCc2[nH]cnc2C1c1cn2ccccc2n1 (stereo not drawn)	> 5
CC(C)(O)c1ncc(C(=O)N2CCc3[nH]cnc3C2c2cn3ccccc3n2)s1 (stereo not drawn)	1 to 5
O=C(c1cnc(C(F)F)s1)N1CCc2[nH]cnc2C1c1cn2ccccc2n1 (stereo not drawn)	1 to 5
O=C(c1nnc(C2CC2)o1)N1CCc2[nH]cnc2C1c1cn2ccccc2n1 (stereo not drawn)	1 to 5
O=C(c1cnc(C2CC2)o1)N1CCc2[nH]cnc2C1c1cn2ccccc2n1 (stereo not drawn)	1 to 5

Compound	AC50 [µM]
O=C(c1cnc(C2CC2)s1)N1CCc2[nH]cnc2C1c1cn2ccccc2n1 (stereo not drawn) [listing 1 of 2 here]	1 to 5
O=C(N1CCc2[nH]cnc2C1c1cn2ccccc2n1)C(F)(F)C1(O)CCC1 (stereo not drawn)	1 to 5
O=C(CCc1nc2ccccc2o1)N1CCc2[nH]cnc2C1c1cn2ccccc2n1 (stereo not drawn)	1 to 5
O=C(CCc1nnc(C(F)F)o1)N1CCc2[nH]cnc2C1c1cn2ccccc2n1 (stereo not drawn)	> 5
O=C(c1nnc(N2CCOCC2)o1)N1CCc2[nH]cnc2C1c1cn2ccccc2n1 (stereo not drawn)	> 5
COCc1ncc(C(=O)N2CCc3[nH]cnc3C2c2cn3ccccc3n2)o1 (stereo not drawn)	> 5
O=C(c1cnc(C(F)(F)F)o1)N1CCc2[nH]cnc2C1c1cn2ccccc2n1 (stereo not drawn)	1 to 5
N#Cc1ncoc1C(=O)N1CCc2[nH]cnc2C1c1cn2ccccc2n1 (stereo not drawn) [listing 1 of 2 here]	1 to 5
O=C(c1cnc(C(F)(F)F)s1)N1CCc2[nH]cnc2C1c1cn2ccccc2n1 (stereo not drawn) [listing 1 of 2 here]	1 to 5
O=C(C1CC1(F)F)N1CCc2[nH]cnc2C1c1cn2ccccc2n1 (stereo not drawn) [listing 1 of 3 here]	1 to 5
O=C(C1CC1(F)F)N1CCc2[nH]cnc2C1c1cn2ccccc2n1 (stereo not drawn) [listing 2 of 3 here]	1 to 5
O=C(c1cnc(C2CC2)s1)N1CCc2[nH]cnc2C1c1cn2ccccc2n1 (stereo not drawn) [listing 2 of 2 here]	> 5
N#Cc1ncoc1C(=O)N1CCc2[nH]cnc2C1c1cn2ccccc2n1 (stereo not drawn) [listing 2 of 2 here]	> 5
O=C(c1cnc(C(F)(F)F)s1)N1CCc2[nH]cnc2C1c1cn2ccccc2n1 (stereo not drawn) [listing 2 of 2 here]	> 5
O=C(C1CC1(F)F)N1CCc2[nH]cnc2C1c1cn2ccccc2n1 (stereo not drawn) [listing 3 of 3 here]	> 5
Cc1ncoc1C(=O)N1CC2(CC2)c2[nH]cnc2C1c1cn2ccccc2n1 (stereo not drawn)	1 to 5
CC1CN(C(=O)c2nnc(N3CCN(C)CC3)o2)C(c2cc3ccccc3cn2)c2nc[nH]c21 (stereo not drawn)	1 to 5
CC1CN(c2nnc(-c3ccccn3)o2)C(c2cc3ccccc3cn2)c2nc[nH]c21 (stereo not drawn)	1 to 5
CC1CN(C(=O)c2oc(-c3ccccn3)nc2C(F)(F)F)C(c2cc3ccccc3cn2)c2nc[nH]c21 (stereo not drawn)	0.5 to 1
